Laboratory results from patent US11345698B2, “Substituted imidazo[1,2-a]pyridines, substituted imidazo[1,2-a]pyrazines, related compounds, and their use in the treatment of medical disorders” (Bial—R&D Investments, S.A., priority 2016, dated 2022).
In brackets after ≈: the same amount, converted by molar mass.

What was measured:
[1] = target: T1, glucocerebrosidase (Gcase) (Homo sapiens, UniProt P04062); assay: Glucocerebrosidase (Gcase) activation assay, 4-methylumbelliferyl-beta-D-glucopyranoside substrate, with saposin C; type: biochemical; details: 10 nM GCase, 100 nM saposin C, pH 4.7; for activation at 0.1 µM: read-out: Percent Gcase Activation, 0.1 μM Test Compound; for activation at 1 µM: read-out: Percent Gcase Activation, 1 μM Test Compound
T1 sequence (P04062 40-536): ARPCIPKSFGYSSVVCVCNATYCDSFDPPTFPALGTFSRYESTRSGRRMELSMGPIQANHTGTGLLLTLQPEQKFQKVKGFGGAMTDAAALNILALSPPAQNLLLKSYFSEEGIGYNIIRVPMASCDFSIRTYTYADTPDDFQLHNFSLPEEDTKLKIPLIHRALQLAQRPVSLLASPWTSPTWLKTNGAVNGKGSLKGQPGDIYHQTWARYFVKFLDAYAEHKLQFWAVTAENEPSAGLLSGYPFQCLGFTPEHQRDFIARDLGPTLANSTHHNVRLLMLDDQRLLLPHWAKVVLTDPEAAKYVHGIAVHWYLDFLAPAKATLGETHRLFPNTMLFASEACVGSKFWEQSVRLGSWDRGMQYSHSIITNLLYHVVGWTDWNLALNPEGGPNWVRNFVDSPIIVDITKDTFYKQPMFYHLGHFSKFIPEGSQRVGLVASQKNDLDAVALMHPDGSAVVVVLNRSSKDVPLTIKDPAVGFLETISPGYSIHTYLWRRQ
Procedure: A 484 μL aliquot of a 1.0 mg/mL solution of phosphatidylserine (PS) (Sigma P7769) in chloroform was evaporated under a stream of nitrogen for 1 hour. The lipid film was dissolved over 4 minutes of vigorous vortexing in 40 mL of 176 mM K2HPO4/50 mM citric acid (pH 4.7) containing 7.5 μL of triton X-100, resulting in a mixed micellar preparation with a composition of 0.32 mM triton and 0.37 mol % PS. 4-Methylumbelliferyl-beta-D-glucopyranoside (ACROS-337025000) was dissolved in the micellar solution to a final concentration of 2 mM for use as the reaction substrate.
Test compounds were diluted to the desired concentrations with dimethylsulfoxide (DMSO) from 10 mM stocks, and 0.41 μL of the DMSO compound mixture was added to 100 μL of micellar solution containing 10 nM GCase and 100 nM saposin C (Enzo ALX-201-262-C050). Pre-incubation was allowed to occur for 30 minutes at room temperature, after which the reaction was initiated by combining 25 μL of substrate solution with 25 μL of compound/GCase/saposin mixture. The reaction proceeded for 15 minutes at room temperature and was stopped by adding 150 μL of 1M glycine, pH 12.5. The endpoint of the reaction was monitored by measuring fluorescence intensity (excitation: 365 nm; emission: 440 nm) on a SpectraMax i3 instrument (Molecular Devices). […]

[2] = Compound solubility in water

| Compound | activation at 0.1 µM ([1]; 0.1 μM test compound) | activation at 1 µM ([1]; 1 μM test compound) | solubility [2] | Percent Gcase Activation, 1 μM Test Compound ([1]; 1 μM test compound) | Percent Gcase Activation, 0.1 μM Test Compound ([1]; 0.1 μM test compound) |
| --- | --- | --- | --- | --- | --- |
| CCCCCO[C@H]1CC[C@H](NC(=O)c2cccc3oc(C)nc23)CC1 [2-Methyl-N-((1R,4R)-4-(pentyloxy)cyclohexyl)benzo[d]oxazole-4-carboxamide] | < 5% | < 5% | 1.6 µg/mL (≈ 4.65 µM) |  |  |
| N-(4-Ethynylphenyl)-5-methylimidazo[1,2-a]pyrazine-8-carboxamide |  |  |  | +++ (Gcase activation greater than 20%) | ++ (Gcase activation in the range of 5% up to 20%) |
| CCC(NC(=O)c1cccc2oc(C)nc12)c1ccccc1 (stereo not drawn) [2-Methyl-N-(1-phenylpropyl)benzo[d]oxazole-4-carboxamide] | < 5% | 5 to 20% | 13.2 µg/mL (≈ 44.7 µM) |  |  |
| CCC(NC(=O)c1ccc(C)n2ccnc12)c1ccccc1 (stereo not drawn) [5-Methyl-N-(1-phenylpropyl)imidazo[1,2-a]pyridine-8-carboxamide] | 5 to 20% | > 20% | 6.2 µg/mL (≈ 21.1 µM) |  |  |
| CCCCCO[C@H]1CC[C@H](NC(=O)c2nccn3cc(C)nc23)CC1 [2-Methyl-N—((R 4R)-4-(pentyloxy)cyclohexyl)imidazo[1,2-a]pyrazine-8-carboxamide] | < 5% | < 5% | 8.4 µg/mL (≈ 24.4 µM) |  |  |
| Cc1nc2c(C(=O)NC3CCCc4ccccc43)cccc2o1 (stereo not drawn) [2-Methyl-N-(1,2,3,4-tetrahydronaphthalen-1-yl)benzo[d]oxazole-4-carboxamide] | < 5% | > 20% | 1.5 µg/mL (≈ 4.9 µM) |  |  |
| Cc1ccc(C(=O)NC2CCCc3ccccc32)c2nccn12 (stereo not drawn) [5-Methyl-N-(1,2,3,4-tetrahydronaphthalen-1-yl)imidazo[1,2-a]pyridine-8-carboxamide] | 5 to 20% | > 20% | 0.2 µg/mL (≈ 0.655 µM) |  |  |
| Cc1cn2ccnc(C(=O)NC3CCCc4ccccc43)c2n1 (stereo not drawn) [2-Methyl-N-(1,2,3,4-tetrahydronaphthalen-1-yl)imidazo[1,2-a]pyrazine-8-carboxamide] | < 5% | < 5% | 7.7 µg/mL (≈ 25.1 µM) |  |  |
| CCC(NC(=O)c1nccn2cc(C)nc12)c1ccccc1 (stereo not drawn) [2-Methyl-N-(1-phenylpropyl)imidazo[1,2-a]pyrazine-8-carboxamide] | < 5% | < 5% | 10.9 µg/mL (≈ 37.1 µM) |  |  |

Continued, in another order:

| activation at 0.1 µM ([1]; 0.1 μM test compound) | activation at 1 µM ([1]; 1 μM test compound) | solubility [2] | Percent Gcase Activation, 1 μM Test Compound ([1]; 1 μM test compound) | Compound | Percent Gcase Activation, 0.1 μM Test Compound ([1]; 0.1 μM test compound) |
| --- | --- | --- | --- | --- | --- |
| < 5% | 5 to 20% | 1 µg/mL (≈ 3.42 µM) |  | Cc1cn2ccnc(C(=O)Nc3ccc4c(c3)CCC4)c2n1 [N-(2,3-Dihydro-1H-inden-5-yl)-2-methylimidazo[1,2-al]pyrazine-8-carboxamide] |  |
| 5 to 20% | > 20% | 14.2 µg/mL (≈ 41.3 µM) |  | CCCCCO[C@H]1CC[C@H](NC(=O)c2ccc(C)n3ccnc23)CC1 [5-Methyl-N-((1S,4S)-4-(pentyloxy)cyclohexyl) imidazo[1,2-a]pyridine-8-carboxamide] |  |
| < 5% | > 20% |  |  | Cc1ccc(C(=O)NC(C)(C)C2CC2)c2nccn12 [N-(2-Cyclopropylpropan-2-yl)-5-methylimidazo[1,2-a]pyridine-8-carboxamide] |  |
| < 5% | 5 to 20% |  |  | Cc1ccc(C(=O)N[C@@H](C)C2CC2)c2nccn12 [(S)—N-(1-Cyclopropylethyl)-5-methylimidazo[1,2-a]pyridine-8-carboxamide] |  |
| < 5% | 5 to 20% | 0.8 µg/mL (≈ 2.9 µM) |  | C#Cc1ccc(NC(=O)c2nccn3cc(C)nc23)cc1 [N-(4-Ethynlphenyl)-2-methylimidazo[1,2-a]pyrazine-8-carboxamide] |  |
| < 5% | 5 to 20% | 0.3 µg/mL (≈ 1.03 µM) |  | Cc1nc2c(C(=O)Nc3ccc4c(c3)CCC4)cccc2o1 [N-(2,3-Dihydro-1H-inden-5-yl)-2-methylbenzo[d]oxazole-4-carboxamide] |  |
| 5 to 20% | > 20% | 9.9 µg/mL (≈ 33.3 µM) |  | Cc1ccc(C(=O)NC(C2CC2)C(F)(F)F)c2nccn12 (stereo not drawn) [N-(1-Cyclopropyl-2,2,2-trifluoroethyl)-5-methylimidazo[1,2-a]pyridine-8-carboxamide] |  |
| < 5% | > 20% | 0.4 µg/mL (≈ 1.37 µM) |  | Cc1ccc(C(=O)Nc2ccc3c(c2)CCC3)c2nccn12 [N-(2,3-Dihydro-1H-inden-5-yl)-5-methylimidazo[1,2-a]pyridine-8-carboxamide] |  |
